Results on three compounds are retold here after paper PMC7552917, “Systematic exploration of different E3 ubiquitin ligases: an approach towards potent and selective CDK6 degraders” (Chemical Science, 2020).

Where two headings read alike, the source gives them in different places. Some results are limits rather than exact numbers.

The target of data set [1] is T1, CDK4 (Homo sapiens, UniProt P11802).
T1 construct: Percentage values are normalized to DMSO-treated MM.1S cells and the respective loading controls; endogenous in cells; host or cells: MM.1S (human multiple myeloma)
In words: CDK4 degradation, western blot of MM.1S cells. Type of data set: cell-based. The note with it: 16 h; for remaining activity at 0.1 µM: MM1.S, read-out: D CDK4: remaining CDK4 levels.

The target of data set [2] is T2, CDK6 (Homo sapiens, UniProt Q00534).
T2 construct: Percentage values are normalized to DMSO-treated MM.1S cells and the respective loading controls; endogenous in cells; host or cells: MM.1S (human multiple myeloma)
Briefly: CDK6 degradation, western blot of MM.1S cells. Type of data set: cell-based. For orientation: Immunoblotting shows a protein as a band on a membrane.

For data set [3], the system named is MDA-MB-231 cells. In words: Cell migration (wound-healing) assay. The conditions noted are these: 0.1 μM, 24 h post-scratch. Type of data set: cell-based, human. The procedure: In total 800.000 MDA-MB-231 breast cancer cells were seeded on uncoated 24-well plates (Starlab).
After 24 h DMEM medium (Pan Biotech) was removed, wells were washed twice with PBS and incubated with 0.1 µM palbociclib, 0.1 µM 34, 0.1 µM VH298 or DMSO in fresh FCS-free medium.
After 24 h of incubation, a scratch was conducted with a 100 µL pipette tip (Starlab), medium was removed, wells were washed twice with PBS and again incubated with fresh FCS-free medium containing the compounds at the aforementioned concentrations. Wound healing was observed microscopically for 24 h with 10-fold magnification (Axiovert 100, Zeiss, Germany). Migration speed was quantified according to the reduced scratch wound area over time.
(§1) Dose response curves were modeled and plotted by using GraphPad Prism software (GraphPad Software). Statistical analysis was performed using GraphPad Prism software (GraphPad Software).
(§2) Variance of biological replicates is represented as the standard error of the mean (SEM) or as the […]

Data set [4] can be described thus: elog D7.4 by chromatographic (HPLC) method. The data set is classed as physicochemical. The note with it: Polaris C18-A column, pH 7.4, read-out: elog D7.4 (experimental distribution coefficient at pH 7.4).
Data set [5] has as its system HEL cells. Briefly: Cell viability assay (CellTiter-Glo), HEL cells. The data set is classed as cell-based. The conditions noted are these: Homo sapiens, 96 h. The procedure:
(§3) Multiple myeloma, leukaemia, and murine cell lines:
(§4) Cells were seeded in 96-well plates with media containing indicated concentrations of respective compounds and plates were incubated at 37 °C for 96 hours. Readout was performed with CellTiter-Glo® Luminescent Cell Viability Assay (Promega) according to the manufacturer’s protocol and luminescence was measured with POLARStar Omega plate reader (BMG LabTech). All results were normalized to non-treated conditions and data represent mean ±SD of biological triplicates. […]
as §1, §2
For orientation: In ATP-based viability assays light output follows the ATP content of the culture.

Data set [6] deals with MDA-MB-231 cells. In words: Cell viability assay (CellTiter-Glo), MDA-MB-231 breast cancer cells. The data set is classed as cell-based, human. The note with it: 96 h. The procedure: Breast cancer cell lines:
To access the compound effect on cell viability, cells were plated in 384-well tissue culture-treated plates (Greiner Bio One). Twenty-four hours later, tested compounds were added into culture to the desired concentrations. Cell viability was measured by using CellTiter-Glo® Luminescent Cell Viability Assay (Promega) at day 4 or day 7 post-treatment and normalized by non-treated controls. […]
as §1, §2

The test system of data set [7] is MM.1S, LP-1, AMO-1, MOLM-13, HEL, KG-1, K562, Nalm-6. Briefly: Cell viability assay (CellTiter-Glo), multiple myeloma and leukemia cell lines. Type of data set: cell-based, human. The note with it: MM.1S, LP-1, AMO-1, MOLM-13, HEL, KG-1, K562, Nalm-6; 96 h, 0.1 or 1 μM. The procedure: as §3, §4, §1, §2
Data set [8] is described as follows: Susceptibility to hydrolysis in buffer, LC/MS. The data set is classed as physicochemical. The conditions noted are these: buffer pH 1, 24 h, 37 °C. The procedure: Next, we investigated the persistence of CDK6 degradation after single drug exposure. […] The differences were even more pronounced when conducting a drug washout-step, showing that while BSJ-03-123 kept CDK6 protein below 50% for a maximum of 6 h, CDK6 degradation mediated by PROTACs 27 and 34 was more persistent and stable for up to 72 h (Fig. 4E and S10, ESI ^†). […] Since these degraders mainly differ in the ligase-binding part, we hypothesized that the deviations in the long-term experiments (Fig. 5A) are due to chemical inactivation of the CRBN ligand. We then tested compounds 27, 34 (VHL-based) and BSJ-03-123 (8, CRBN-based) for susceptibility to hydrolysis. These PROTACs were incubated in two different buffers for 24 h at 37 °C and aliquots were analysed by LC/MS.
Fig. 5 (A) Quantification of long-term treatment experiments (see Fig. S9, ESI ^†) and (B) drug stability data at pH 1 and pH 7.4. Acetonitrile solutions of the PROTACs were mixed with two different buffers and incubated for 24 hours at 37 °C. Subsequently, aliquots were analysed by LC/MS and normalized to acetonitrile solutions.

T1 sequence (P11802 whole entry): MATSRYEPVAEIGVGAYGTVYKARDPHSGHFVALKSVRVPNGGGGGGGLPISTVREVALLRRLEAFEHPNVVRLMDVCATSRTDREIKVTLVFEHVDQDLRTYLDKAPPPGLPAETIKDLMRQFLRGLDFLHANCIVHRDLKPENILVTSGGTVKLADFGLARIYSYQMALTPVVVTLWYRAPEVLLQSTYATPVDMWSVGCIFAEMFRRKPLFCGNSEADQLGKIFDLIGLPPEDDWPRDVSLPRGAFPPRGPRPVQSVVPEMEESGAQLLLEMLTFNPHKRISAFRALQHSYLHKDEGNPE
T2 sequence (Q00534 whole entry): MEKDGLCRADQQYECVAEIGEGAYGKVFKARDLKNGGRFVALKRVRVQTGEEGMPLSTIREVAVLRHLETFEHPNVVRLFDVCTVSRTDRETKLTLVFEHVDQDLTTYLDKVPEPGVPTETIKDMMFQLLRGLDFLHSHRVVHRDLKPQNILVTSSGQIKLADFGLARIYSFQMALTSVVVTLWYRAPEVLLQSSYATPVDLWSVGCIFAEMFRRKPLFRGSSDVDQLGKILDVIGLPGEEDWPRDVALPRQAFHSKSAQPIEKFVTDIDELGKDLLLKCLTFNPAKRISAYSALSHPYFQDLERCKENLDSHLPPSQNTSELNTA

On to `Cc1ncsc1-c1ccc(CNC(=O)[C@@H]2C[C@@H](O)CN2C(=O)[C@@H](NC(=O)C2(C#N)CC2)C(C)(C)C)cc1` [4 (VH298), VH298, reference compound], for which the remaining activity at 0.1 µM is > 95% in data set [1] and > 95% in data set [2] (MM1.S, 16 h, read-out: D CDK6: remaining CDK6 levels). Further, the “Reduction of wound healing” value in data set [3] is listed as “did not affect the ability of MDA-MB-231 cells to migrate”.
In the case of `CC(=O)c1c(C)c2cnc(Nc3ccc(N4CCN(CCOCCOCCOc5cc(-c6scnc6C)ccc5CNC(=O)[C@@H]5C[C@@H](O)CN5C(=O)[C@@H](NC(=O)C5(F)CC5)C(C)(C)C)CC4)cn3)nc2n(C2CCCC2)c1=O` [34 (CST651)], in data set [4], the chromatographic logD was 3.1. The remaining activity at 0.1 µM in data set [1] (0.1 μM, MM.1S cells, normalized to DMSO (100%)) was determined as 44%; in data set [2] (MM1.S, 0.1 μM, 16 h, MM.1S cells, normalized to DMSO (100%), read-out: D CDK6: remaining CDK6 levels) it was 1.4%. Further, the half-maximal degradation concentration (DC50) in data set [1] (MM.1S cells) came to 20 nM; in data set [2] (MM.1S cells, 16 h, 1 μM value excluded (hook effect)) it was 5.1 nM. Moreover, the “Selectivity ratio D CDK4/D CDK6 for the degradation of CDK6 over CDK4” value in data set [2] (0.1 μM, 16 h, MM.1S cells) came out at 31. Further, the remaining activity at 1 µM in data set [2] (MM1.S, 1 μM, 16 h, MM.1S cells, normalized to DMSO (100%), read-out: D CDK6: remaining CDK6 levels) was 8.5%. Moreover, the maximal degradation (Dmax) in data set [2] (MM1.S, MM.1S cells, 16 h, at a concentration as low as 100 nM, read-out: Dmax: maximum of CDK6 degradation) was > 95%. In addition, in data set [2] (MM.1S cells, 0.1 μM for 16 h, then washout with PBS), the “Time CDK6 degradation persists (CDK6 protein below 50%) after drug washout” value is “up to 72 h”. In addition, the “Persistence of CDK6 degradation after single drug exposure (long-term treatment)” value in data set [2] (MM.1S cells, no washout) is “satisfactory CDK6 level suppression even after 96 h”. Inhibition in data set [5] was half-maximal at 450 nM (IC50). For the same compound, the “Inhibitory activity on cell viability relative to palbociclib” value in data set [6] was “inhibitory activity comparable to palbociclib”. Further, the “Effect on cell proliferation” value in data set [7] is given as “inhibited cell proliferation”. In addition, the “Reduction of wound healing” value in data set [3] is on record as 29%. The “Stability to hydrolysis at pH 1” value in data set [8] is listed as “stable”.
In the case of `CC(=O)c1c(C)c2cnc(Nc3ccc(N4CCNCC4)cn3)nc2n(C2CCCC2)c1=O` [palbociclib, reference compound], the 50% inhibitory concentration (IC50) in data set [5] was 4160 nM; in data set [6] (Homo sapiens), 260 nM. Moreover, in data set [3], the “Reduction of wound healing” value is listed as 17%.

By DC50 is commonly meant the midpoint of the concentration-degradation curve. A low value points to degradation at low concentration. By Dmax is commonly meant the largest share of the target that was removed. What is called IC50 is the concentration needed to halve the response being measured. A high value points to weaker potency in that assay.
